According to US8669271B2 (Boehringer Ingelheim International GmbH, priority 2010, dated 2014):
pEC50: −log10 of the molar value.

What follows are compounds tested against T1, human GPR119 (Homo sapiens, UniProt Q8TDV5) (assay: AlphaScreen cAMP assay in Min-6/hGPR119 cells (activation of GPR119, intracellular cAMP)). Settings: MIN6 cells stably transfected with human GPR119; cAMP by AlphaScreen after 45 minutes incubation at room temperature.
T1 construct: expression vector for human GPR119 cDNA (Acc. No. NP_848566); expressed in transfected cells
T1 sequence (Q8TDV5 1-335): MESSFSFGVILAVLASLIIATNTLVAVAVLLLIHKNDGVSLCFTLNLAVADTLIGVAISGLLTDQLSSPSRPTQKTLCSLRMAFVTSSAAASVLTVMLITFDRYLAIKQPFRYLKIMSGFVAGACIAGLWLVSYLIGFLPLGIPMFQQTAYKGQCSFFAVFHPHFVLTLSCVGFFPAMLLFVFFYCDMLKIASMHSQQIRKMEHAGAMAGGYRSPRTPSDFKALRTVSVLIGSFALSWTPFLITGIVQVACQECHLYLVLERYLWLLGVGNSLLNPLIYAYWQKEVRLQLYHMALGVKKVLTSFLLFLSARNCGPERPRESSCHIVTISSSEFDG
Assay type: cell-based
Procedure: The compounds of formula I according to the invention modulate the activity of the G-protein-coupled receptor GPR119. The effect of the compounds on the activation of GPR119 and on the stimulation of intracellular cAMP concentration is determined using the AlphaScreen cAMP Assay Kit (Cat.No.#6760625R) made by PerkinElmer.
MIN6 cells [Miyazaki J et al. Endocrinology. 1990 July; 127(1):126-32] are stably transfected with an expression vector for human GPR119 cDNA (Acc. No. NP_848566). Min-6/hGPR119 cells are cultured in DMEM, 10% FBS, 50 μM β-mercaptoethanol, 0.3 mg/mL Geniticin, 2 mM GlutaMAX at 37° C. 5% CO2. For the assay, the cells are seeded in Optiplates (white, 384-well, 160W— barcoded, TC, sterile with lid, Cat.No.#6007688 (Perkin Elmer); 10000 cells/well; 50 μl). The plates covered with lids are then incubated for 24 hours at 37° C./5% CO2. After the medium is aspirated from the wells completely, 10 μl of the test compound are added, the compounds are diluted using stimulating buffer (140 mM NaCl, 3.6 mM KCl, 0.5 mM NaH2PO4, 0.5 mM MgSO4, 1.5 mM CaCl2, 10 mM Hepes, 5 mM NaHCO3; pH 7.4. 0.5 mM IBMX and 0.1% BSA, the final DMSO concentration is 1%). After 45 minutes incubation at room temperature (approx. 20° C.), the cAMP concentrations are determined using the AlphaScreen cAMP Assay Kit (Cat.No.#6760625R from PerkinElmer).

With `CC(C)(C)OC(=O)N1CCC(C2Cc3cc(-c4ccncc4C#N)ncc3O2)CC1` (stereo not shown) [Example 59, 4-[5-(3-Cyano-pyridin-4-yl)-2,3-dihydro-furo[2,3-c]pyridin-2-yl]-piperidine-1-carboxylic acid tert-butyl ester] as the compound, how does the pEC50 read?
Its pEC50 is 6.92.

How did the pEC50 turn out when `CC(C)(C)OC(=O)N1CCC(C2Cc3cc(-n4ccncc4=O)ncc3O2)CC1` (stereo not shown) [Example 60, 4-[5-(2-Oxo-2H-pyrazin-1-yl)-2,3-dihydro-furo[2,3-c]pyridin-2-yl]-piperidine-1-carboxylic acid tert-butyl ester] was run?
The pEC50 was 6.28.

`CS(=O)(=O)Cc1ccc(-c2cc3c(cn2)OC(C2CCN(C(=O)OC4CCC4)CC2)C3)cc1` (stereo not shown) [Example 61, 4-[5-(4-Methanesulfonylmethyl-phenyl)-2,3-dihydro-furo[2,3-c]pyridin-2-yl]-piperidine-1-carboxylic acid cyclobutyl ester] was tested. Which pEC50 did it give?
Its pEC50 is 7.51.

How did the pEC50 turn out when `CC(C)OC(=O)N1CCC(C2Cc3cc(-c4ccc(CS(C)(=O)=O)cc4)ncc3O2)CC1` (stereo not shown) [Example 62, 4-[5-(4-Methanesulfonylmethyl-phenyl)-2,3-dihydro-furo[2,3-c]pyridin-2-yl]-piperidine-1-carboxylic acid isopropyl ester] was run?
The pEC50 was 7.44.

How did the pEC50 turn out when `CC(C)OC(=O)N1CCC(C2Cc3cc(-c4ccc(S(C)(=O)=O)cc4)ncc3O2)CC1` (stereo not shown) [Example 63, 4-[5-(4-Methanesulfonyl-phenyl)-2,3-dihydro-furo[2,3-c]pyridin-2-yl]-piperidine-1-carboxylic acid isopropyl ester] was run?
The pEC50 was 7.74.

`CC1(OC(=O)N2CCC(C3Cc4cc(-c5ccc(CS(C)(=O)=O)cc5)ncc4O3)CC2)CC1` (stereo not shown) [Example 64, 4-[5-(4-Methanesulfonylmethyl-phenyl)-2,3-dihydro-furo[2,3-c]pyridin-2-yl]-piperidine-1-carboxylic acid 1-methyl-cyclopropyl ester] was tested. Which pEC50 did it give?
Its pEC50 is 7.29.

How did the pEC50 turn out when `CC(C)S(=O)(=O)c1ccc(-c2cc3c(cn2)OC(C2CCN(C(=O)OC(C)(C)C)CC2)C3)cc1` (stereo not shown) [Example 65, 4-{5-[4-(Propane-2-sulfonyl)-phenyl]-2,3-dihydro-furo[2,3c]pyridin-2-yl}-piperidine-1-carboxylic acid tert-butyl ester] was run?
Its pEC50 is 7.59.

With `CCS(=O)(=O)c1ccc(-c2cc3c(cn2)OC(C2CCN(C(=O)OC(C)(C)C)CC2)C3)cc1` (stereo not shown) [Example 66, 4-[5-(4-Ethanesulfonyl-phenyl)-2,3-dihydro-furo[2,3-c]pyridin-2-yl]-piperidine-1-carboxylic acid tert-butyl ester] as the compound, how does the pEC50 read?
Its pEC50 is 7.92.

`CC(=O)Nc1ccc(-c2cc3c(cn2)OC(C2CCN(C(=O)OC(C)(C)C)CC2)C3)cc1` (stereo not shown) [Example 67, 4-[5-(4-Acetylamino-phenyl)-2,3-dihydro-furo[2,3-c]pyridin-2-yl]-piperidine-1-carboxylic acid tert-butyl ester] was tested. Which pEC50 did it give?
The pEC50 was 7.89.

How did the pEC50 turn out when `Cn1cc(-c2cc3c(cn2)OC(C2CCN(C(=O)OC(C)(C)C)CC2)C3)cn1` (stereo not shown) [Example 68, 4-[5-(1-Methyl-1H-pyrazol-4-yl)-2,3-dihydro-furo[2,3-c]pyridin-2-yl]-piperidine-1-carboxylic acid tert-butyl ester] was run?
The pEC50 was 6.24.

How did the pEC50 turn out when `CC(C)(C)OC(=O)N1CCC(C2Cc3cc(-n4ccnc4)ncc3O2)CC1` (stereo not shown) [Example 69, 4-(5-Imidazol-1-yl-2,3-dihydro-furo[2,3-c]pyridin-2-yl)-piperidine-1-carboxylic acid tert-butyl ester] was run?
Its pEC50 is 6.79.

With `Cc1nccn1-c1cc2c(cn1)OC(C1CCN(C(=O)OC(C)(C)C)CC1)C2` (stereo not shown) [Example 70, 4-[5-(2-Methyl-imidazol-1-yl)-2,3-dihydro-furo[2,3-c]pyridin-2-yl]-piperidine-1-carboxylic acid tert-butyl ester] as the compound, how does the pEC50 read?
Its pEC50 is 6.15.

With `CC(C)(C)OC(=O)N1CCC([C@@H]2Cc3cc(-c4ccc(S(C)(=O)=O)cn4)ccc3O2)CC1` [Example 71, (S)-4-[5-(5-Methanesulfonyl-pyridin-2-yl)-2,3-dihydro-benzofuran-2-yl]-piperidine-1-carboxylic acid tert-butyl ester] as the compound, how does the pEC50 read?
Its pEC50 is 7.96.
